Assay results: article PMC9250534, “Synthesis and direct assay of large macrocycle diversities by combinatorial late-stage modification at picomole scale” (Nature Communications, 2022)
Numbered stars: 1 amine (or outer) side, 2 acyl side, 3 side chain; on linkers, the order of the positions; unused ones are H or OH. Bridge positions count the residues as written; N and C are the ends. Square brackets hold non-standard residues; d marks the D form. Side chains are listed from the residue outwards. Peptide text beside a SMILES is read from it. * marks the point of attachment. Propanoyl(3-(4-Cl-Ph)) = O=C(CCc1ccc(Cl)cc1)*; Tetrahydropyran4carbonyl = O=C(C1CCOCC1)*; Phenylacetyl(4-Cl) = O=C(Cc1ccc(Cl)cc1)*; Morpholinoacetyl = O=C(CN1CCOCC1)*; Benzoyl(3-OH) = O=C(c1cccc(O)c1)*; Pentanoyl(4-Me) = CC(C)CCC(=O)*; X5 = O=C(c1cc2cc(Cl)ccc2[nH]1)*; Cysteamide = C(CS[*:3])N[*:1]; Me3Gly = C[N+](C)(C)CC(=O)*; X12 = Cc1nc2ccccn2c1C(=O)*; MeOSuc = COC(=O)CCC(=O)*; X1 = O=C(/C=C/c1ccccc1)*; X16 = Cc1cc(C(=O)*)ccc1O; Dap = NC[C@H](N)C(=O)O; Mpa = O=C(O)CCS

Target: MDM2 (Homo sapiens, UniProt Q00987)
Sequence (Q00987 whole entry): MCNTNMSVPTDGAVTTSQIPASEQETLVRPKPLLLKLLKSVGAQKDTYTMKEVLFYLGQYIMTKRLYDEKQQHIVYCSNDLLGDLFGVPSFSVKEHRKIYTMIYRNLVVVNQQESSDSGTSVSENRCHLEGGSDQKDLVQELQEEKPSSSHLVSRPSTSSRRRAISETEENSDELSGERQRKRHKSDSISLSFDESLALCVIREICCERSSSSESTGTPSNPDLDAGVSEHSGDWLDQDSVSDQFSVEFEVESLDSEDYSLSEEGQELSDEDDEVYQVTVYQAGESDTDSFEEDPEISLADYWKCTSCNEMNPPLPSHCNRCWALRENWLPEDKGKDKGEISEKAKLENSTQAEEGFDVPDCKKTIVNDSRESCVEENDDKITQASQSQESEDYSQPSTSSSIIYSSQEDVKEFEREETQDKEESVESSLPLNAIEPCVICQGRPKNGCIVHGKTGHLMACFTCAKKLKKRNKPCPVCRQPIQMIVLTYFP
Assay: MDM2 binding screen: displacement of fluorescent p53 peptide probe FP53 (fluorescence polarization)
Details: 10 µM macrocycle concentration; crude acylated macrocycle (scaffold Mpa-AA1-AA2-AA3 x carboxylic acid); p53-based fluorescent peptide, human MDM2
Outline: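 Macrocycle reaction products at a final 10 µM were tested for displacement of a p53-based fluorescent peptide from human MDM2. Fluorescence anisotropy (ex 485/em 535 nm) was read once per macrocycle at 25 °C.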

| Compound | fraction fluorescent probe displaced |
| --- | --- |
| O=C(NC[C@@H]1NC(=O)[C@@H]2CCCN2C(=O)CCSSCCNC(=O)[C@H](Cc2c[nH]c3ccccc23)NC1=O)c1cccc(O)c1 [X-B1-D3-W + A27] ([Mpa]P[Dap](Benzoyl(3-OH))W-Cysteamide; disulfide 1-C) | 0.1229 |
| Cc1cc(C(=O)NC[C@@H]2NC(=O)[C@@H]3CCCN3C(=O)CCSSCCNC(=O)[C@H](Cc3c[nH]c4ccccc34)NC2=O)ccc1O [X-B1-D3-W + A30] ([Mpa]P[Dap](X16)W-Cysteamide; disulfide 1-C) | 0.08563 |
| O=C(NC[C@@H]1NC(=O)[C@@H]2CCCN2C(=O)CCSSCCNC(=O)[C@H](Cc2c[nH]c3ccccc23)NC1=O)c1cc2cc(Cl)ccc2[nH]1 [X-B1-D3-W + A39] ([Mpa]P[Dap](X5)W-Cysteamide; disulfide 1-C) | 0.06212 |
| O=C(CCc1ccc(Cl)cc1)NC[C@@H]1NC(=O)[C@@H]2CCCN2C(=O)CCSSCCNC(=O)[C@H](Cc2c[nH]c3ccccc23)NC1=O [X-B1-D3-W + A42] ([Mpa]P[Dap](Propanoyl(3-(4-Cl-Ph)))W-Cysteamide; disulfide 1-C) | 0.05096 |
| O=C(NC[C@@H]1NC(=O)[C@@H]2CCCN2C(=O)CCSSCCNC(=O)[C@H](Cc2c[nH]c3ccccc23)NC1=O)C1CCOCC1 [X-B1-D3-W + A44] ([Mpa]P[Dap](Tetrahydropyran4carbonyl)W-Cysteamide; disulfide 1-C) | 0.01122 |
| O=C(Cc1ccc(Cl)cc1)NC[C@@H]1NC(=O)[C@@H]2CCCN2C(=O)CCSSCCNC(=O)[C@H](Cc2c[nH]c3ccccc23)NC1=O [X-B1-D3-W + A45] ([Mpa]P[Dap](Phenylacetyl(4-Cl))W-Cysteamide; disulfide 1-C) | 0.08387 |
| Cc1nc2ccccn2c1C(=O)NC[C@@H]1NC(=O)[C@@H]2CCCN2C(=O)CCSSCCNC(=O)[C@H](Cc2c[nH]c3ccccc23)NC1=O [X-B1-D3-W + A61] ([Mpa]P[Dap](X12)W-Cysteamide; disulfide 1-C) | 0.006636 |
| O=C(CN1CCOCC1)NC[C@@H]1NC(=O)[C@@H]2CCCN2C(=O)CCSSCCNC(=O)[C@H](Cc2c[nH]c3ccccc23)NC1=O [X-B1-D3-W + A63] ([Mpa]P[Dap](Morpholinoacetyl)W-Cysteamide; disulfide 1-C) | 0.03922 |
| CC(C)CCC(=O)NC[C@@H]1NC(=O)[C@@H]2CCCN2C(=O)CCSSCCNC(=O)[C@H](Cc2c[nH]c3ccccc23)NC1=O [X-B1-D3-W + A68] ([Mpa]P[Dap](Pentanoyl(4-Me))W-Cysteamide; disulfide 1-C) | -0.02228 |
| CC(=O)NCC(=O)NC[C@@H]1NC(=O)[C@@H]2CCCN2C(=O)CCSSCCNC(=O)[C@H](Cc2c[nH]c3ccccc23)NC1=O [X-B1-D3-W + A83] ([Mpa]P[Dap]([Gly-Ac])W-Cysteamide; disulfide 1-C) | 0.1654 |
| O=C(/C=C/c1ccccc1)NC[C@@H]1NC(=O)[C@@H]2CCCN2C(=O)CCSSCCNC(=O)[C@H](Cc2c[nH]c3ccccc23)NC1=O [X-B1-D3-W + A91] ([Mpa]P[Dap](X1)W-Cysteamide; disulfide 1-C) | 0.1099 |
| C[N+](C)(C)CC(=O)NC[C@@H]1NC(=O)[C@@H]2CCCN2C(=O)CCSSCCNC(=O)[C@H](Cc2c[nH]c3ccccc23)NC1=O [X-B1-D3-W + A92] ([Mpa]P[Dap](Me3Gly)W-Cysteamide; disulfide 1-C) | -0.1286 |
| COC(=O)CCC(=O)NC[C@@H]1NC(=O)[C@@H]2CCCN2C(=O)CCSSCCNC(=O)[C@H](Cc2c[nH]c3ccccc23)NC1=O [X-B1-D3-W + A93] ([Mpa]P[Dap](MeOSuc)W-Cysteamide; disulfide 1-C) | 0.1339 |
